Test results reported in US20260200920A1, “SUBSTITUTED AMINOPYRIDINE COMPOUNDS FOR USE AS AKT1 INHIBITORS” (Atavistik Bio, Inc., priority 2023, published 2026).

Key:
[1] = target: T1, human recombinant kinase full-length wildtype AKT1 (Homo sapiens, UniProt P31749); assay: AKT1 kinase assay (wildtype, TR-FRET, Lance); type: biochemical; conditions: 0.6 nM wildtype AKT1, 50 nM Ulight-CREBtide, either 50 μM ATP or 2 mM ATP, 60 min at RT
T1 construct: Purified human recombinant kinase full-length wildtype AKT1 was expressed in insect cells; made in house; host or cells: insect cells
T1 sequence (P31749 whole entry): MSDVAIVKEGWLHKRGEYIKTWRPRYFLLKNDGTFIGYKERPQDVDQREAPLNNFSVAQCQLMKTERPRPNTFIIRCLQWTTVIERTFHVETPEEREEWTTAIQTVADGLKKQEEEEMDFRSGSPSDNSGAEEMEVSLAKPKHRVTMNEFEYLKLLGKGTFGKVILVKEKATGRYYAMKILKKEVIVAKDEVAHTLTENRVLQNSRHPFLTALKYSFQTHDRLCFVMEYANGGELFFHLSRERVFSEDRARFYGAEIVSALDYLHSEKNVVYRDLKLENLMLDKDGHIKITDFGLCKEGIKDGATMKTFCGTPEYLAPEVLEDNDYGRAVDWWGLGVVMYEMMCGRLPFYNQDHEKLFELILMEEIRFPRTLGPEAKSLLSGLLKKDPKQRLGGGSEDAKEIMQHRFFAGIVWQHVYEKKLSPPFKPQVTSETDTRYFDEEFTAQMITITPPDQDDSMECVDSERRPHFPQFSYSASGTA
How it was run: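 TR-FRET 665/620 ratio quantified phospho-CREBtide formed by PDPK1-activated full-length human AKT1 (0.6 nM, insect-cell-derived) over 60 min at RT with 50 nM ULight-CREBtide and either 50 μM or 2 mM ATP. Compounds were preincubated 15 min with enzyme; IC50 came from 4-parameter fits of 10-point duplicates.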

[2] = target: T2, human recombinant kinase full-length AKT1 E17K (Homo sapiens, UniProt P31749, E17K); assay: AKT1 E17K kinase assay (TR-FRET, Lance); type: biochemical; conditions: 0.6 nM AKT1 E17K, 50 nM Ulight-CREBtide, either 50 μM ATP or 2 mM ATP, 60 min at RT
T2 construct: Purified human recombinant kinase full-length AKT1 E17K was expressed in insect cells; made in house; host or cells: insect cells
T2 sequence (P31749 whole entry E17K): as the sequence (P31749 whole entry) above, with E17K counted along it
How it was run: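 IC50 came from a 10-point, 4-parameter fit of the 665/620 TR-FRET ratio read with Eu-anti-phospho-CREB (Ser133). Reaction at RT for 60 min after 15 min compound preincubation, using 0.6 nM PDPK1-activated full-length AKT1 E17K (insect-cell), 50 nM Ulight-CREBtide, ATP at 50 μM or 2 mM, HEPES pH 7.5, 1% DMSO.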

| Structure (SMILES) | IC50 [1] | IC50 [2] |
| --- | --- | --- |
| CC(C)(C)c1ccc2nc(-c3cccnc3N)n(-c3ccc(NC(=O)[C@H]4CC[C@H](C(=O)O)CC4)nc3)c2c1 [Compound I-117, (1r,4r)-4-((5-(2-(2-aminopyridin-3-yl)-6-(tert-butyl)-1H-benzo[d]imidazol-1-yl)pyridin-2-yl)carbamoyl)cyclohexane-1-carboxylic acid] | < 20000 nM | ≥ 2000 nM |
| Nc1ncccc1-c1nc2ccc(C3CCCCC3)nc2n1-c1ccc(NC(=O)[C@H]2CC[C@H](C(=O)O)CC2)nc1 [Compound I-119, (1r,4r)-4-((5-(2-(2-aminopyridin-3-yl)-5-cyclohexyl-3H-imidazo[4,5-b]pyridin-3-yl)pyridin-2-yl)carbamoyl)cyclohexane-1-carboxylic acid] | < 20000 nM | 500 to 2000 nM |
| Nc1ncccc1-c1nc2ccc(C3CCCC3)nc2n1-c1ccc(NC(=O)[C@H]2CC[C@H](C(=O)O)CC2)nc1 [Compound I-120, (1r,4r)-4-((5-(2-(2-aminopyridin-3-yl)-5-cyclopentyl-3H-imidazo[4,5-b]pyridin-3-yl)pyridin-2-yl)carbamoyl) cyclohexane-1-carboxylic acid] | < 20000 nM | 500 to 2000 nM |
| NC(=O)N1CCC(C(=O)Nc2ccc(-n3c(-c4cccnc4N)nc4ccc(-c5ccccc5)nc43)cn2)CC1 [Compound I-122, N^4-(5-(2-(2-aminopyridin-3-yl)-5-phenyl-31-imidazo[4,5-b]pyridin-3-yl)pyridin-2-yl)piperidine-1,4-dicarboxamide] | < 20000 nM | < 500 nM |
| Nc1ncccc1-c1nc2ccc(OC(F)(F)F)cc2n1-c1ccc(NC(=O)[C@H]2CC[C@H](C(=O)O)CC2)nc1 [Compound I-123, (1r,4r)-4-((5-(2-(2-aminopyridin-3-yl)-6-(trifluoromethoxy)-1H-benzo[d]imidazol-1-yl)pyridin-2-yl)carbamoyl)cyclohexane-1-carboxylic acid] | < 20000 nM | ≥ 2000 nM |
| CC(C)Oc1ccc2nc(-c3cccnc3N)n(-c3ccc(NC(=O)[C@H]4CC[C@H](C(=O)O)CC4)nc3)c2c1 [Compound I-124, (1r,4r)-4-((5-(2-(2-aminopyridin-3-yl)-6-isopropoxy-1H-benzo[d]imidazol-1-yl)pyridin-2-yl)carbamoyl)cyclohexane-1-carboxylic acid] | < 20000 nM | ≥ 2000 nM |
| Cc1nc(-n2c(-c3cccnc3N)nc3ccc(-c4ccccc4)nc32)ccc1NC(=O)C1CC2(CC(C(=O)O)C2)C1 (stereo not shown) [Compound I-126, 6-((6-(2-(2-aminopyridin-3-yl)-5-phenyl-3H-imidazo[4,5-b]pyridin-3-yl)-2-methylpyridin-3-yl)carbamoyl)spiro[3.3]heptane-2-carboxylic acid] | < 20000 nM | ≥ 2000 nM |
| Cc1nc(NC(=O)[C@H]2CC[C@H](C(=O)O)CC2)ccc1-n1c(-c2cccnc2N)nc2ccc(-c3ccccn3)cc21 [Compound I-130, (1r,4r)-4-((5-(2-(2-aminopyridin-3-yl)-6-(pyridin-2-yl)-1H-benzo[d]imidazol-1-yl)-6-methylpyridin-2-yl)carbamoyl)cyclohexane-1-carboxylic acid] | < 20000 nM | ≥ 2000 nM |
| Cc1nc(-n2c(-c3cccnc3N)nc3ccc(-c4ccccn4)cc32)ccc1NC(=O)[C@H]1CC[C@H](C(=O)O)CC1 [Compound I-133, (1r,4r)-4-((6-(2-(2-aminopyridin-3-yl)-6-(pyridin-2-yl)-1H-benzo[d]imidazol-1-yl)-2-methylpyridin-3-yl)carbamoyl)cyclohexane-1-carboxylic acid] | < 20000 nM | ≥ 2000 nM |
| CC(C)(C(=O)O)C1CCN(Cc2ccc(-n3c(-c4cccnc4N)nc4ccc(-c5ccccc5)nc43)cn2)CC1 [Compound I-135, 2-(1-((5-(2-(2-aminopyridin-3-yl)-5-phenyl-3H-imidazo[4,5-b]pyridin-3-yl)pyridin-2-yl)methyl)piperidin-4-yl)-2-methylpropanoic acid] | < 20000 nM | ≥ 2000 nM |
| Nc1ncccc1-c1nc2ccc(-c3ccccc3)nc2n1-c1ccc(NCC2CC3(C2)CC(C(=O)O)C3)nc1 (stereo not shown) [Compound I-137, 6-(((5-(2-(2-aminopyridin-3-yl)-5-phenyl-3H-imidazo[4,5-b]pyridin-3-yl)pyridin-2-yl)amino)methyl)spiro[3.3]heptane-2-carboxylic acid] | < 20000 nM | < 500 nM |

Second part, the compound after the results:

| IC50 [1] | IC50 [2] | Structure (SMILES) |
| --- | --- | --- |
| < 20000 nM | < 500 nM | Cc1nc(NC(=O)[C@H]2CC[C@H](C(=O)O)CC2)ccc1-n1c(-c2cccnc2N)nc2ccc(-c3ccccc3)nc21 [Compound I-118, (1r,4r)-4-((5-(2-(2-aminopyridin-3-yl)-5-phenyl-3H-imidazo[4,5-b]pyridin-3-yl)-6-methylpyridin-2-yl)carbamoyl)cyclohexane-1-carboxylic acid] |
| < 20000 nM | < 500 nM | Cc1nc(N[C@H]2CC[C@H](C(=O)O)CC2)ccc1-n1c(-c2cccnc2N)nc2ccc(-c3ccccc3)nc21 [Compound I-121, (1r,4r)-4-((5-(2-(2-aminopyridin-3-yl)-5-phenyl-3H-imidazo[4,5-b]pyridin-3-yl)-6-methylpyridin-2-yl)amino)cyclohexane-1-carboxylic acid] |
| < 20000 nM | < 500 nM | Cc1nc(NC(=O)C2CC3(CC(C(=O)O)C3)C2)ccc1-n1c(-c2cccnc2N)nc2ccc(-c3ccccc3)nc21 (stereo not shown) [Compound I-125, 6-((5-(2-(2-aminopyridin-3-yl)-5-phenyl-3H-imidazo[4,5-b]pyridin-3-yl)-6-methylpyridin-2-yl)carbamoyl)spiro[3.3]heptane-2-carboxylic acid] |
| < 20000 nM | 500 to 2000 nM | Cc1nc(NC(=O)[C@H]2CC[C@H](C(=O)O)CC2)ccc1-n1c(-c2cccnc2N)nc2ccc(-c3ccccc3)cc21 [Compound I-127, (1r,4r)-4-((5-(2-(2-aminopyridin-3-yl)-6-phenyl-1H-benzo[d]imidazol-1-yl)-6-methylpyridin-2-yl)carbamoyl)cyclohexane-1-carboxylic acid] |
| < 20000 nM | 500 to 2000 nM | Cc1nc(NC(=O)C2CCC(C)(C(=O)O)CC2)ccc1-n1c(-c2cccnc2N)nc2ccc(-c3ccccc3)nc21 (stereo not shown) [Compound I-128, 4-((5-(2-(2-aminopyridin-3-yl)-5-phenyl-3H-imidazo[4,5-b]pyridin-3-yl)-6-methylpyridin-2-yl)carbamoyl)-1-methylcyclohexane-1-carboxylic acid] |
| < 20000 nM | 500 to 2000 nM | Cc1nc(NC(=O)C2CCC(C(=O)O)C2)ccc1-n1c(-c2cccnc2N)nc2ccc(-c3ccccc3)nc21 (stereo not shown) [Compound I-129, 3-((5-(2-(2-aminopyridin-3-yl)-5-phenyl-3H-imidazo[4,5-b]pyridin-3-yl)-6-methylpyridin-2-yl)carbamoyl)cyclopentane-1-carboxylic acid] |
| < 20000 nM | 500 to 2000 nM | Cc1nc(NC[C@H]2CC[C@H](C(=O)O)CC2)ccc1-n1c(-c2cccnc2N)nc2ccc(-c3ccccc3)nc21 [Compound I-131, (1r,4r)-4-(((5-(2-(2-aminopyridin-3-yl)-5-phenyl-3H-imidazo[4,5-b]pyridin-3-yl)-6-methylpyridin-2-yl)amino)methyl)cyclohexane-1-carboxylic acid] |
| < 20000 nM | 500 to 2000 nM | Cc1nc(NC(=O)C2CCC(C(C)C(=O)O)C2)ccc1-n1c(-c2cccnc2N)nc2ccc(-c3ccccc3)nc21 (stereo not shown) [Compound I-132, 2-(3-((5-(2-(2-aminopyridin-3-yl)-5-phenyl-3H-imidazo[4,5-b]pyridin-3-yl)-6-methylpyridin-2-yl)carbamoyl)cyclopentyl)propanoic acid] |
| < 20000 nM | 500 to 2000 nM | Cc1nc(N[C@H]2CC[C@@H](C(=O)O)CC2)ccc1-n1c(-c2cccnc2N)nc2ccc(-c3ccccc3)nc21 [Compound I-134, (1s,4s)-4-((5-(2-(2-aminopyridin-3-yl)-5-phenyl-3H-imidazo[4,5-b]pyridin-3-yl)-6-methylpyridin-2-yl)amino)cyclohexane-1-carboxylic acid] |
| < 20000 nM | 500 to 2000 nM | Nc1ncccc1-c1nc2ccc(-c3ccccc3)nc2n1-c1ccc(CN2CC3(CC(C(=O)O)C3)C2)nc1 [Compound I-136, 2-((5-(2-(2-aminopyridin-3-yl)-5-phenyl-3H-imidazo[4,5-b]pyridin-3-yl)pyridin-2-yl)methyl)-2-azaspiro[3.3]heptane-6-carboxylic acid] |
| < 20000 nM | < 500 nM | C[C@]1(C(=O)O)CC[C@H](CN2CC(c3ccc(-n4c(-c5cccnc5N)nc5ccc(-c6ccccc6)nc54)cc3)C2)CC1 [Compound I-138, (1r,4r)-4-((3-(4-(2-(2-aminopyridin-3-yl)-5-phenyl-3H-imidazo[4,5-b]pyridin-3-yl)phenyl)azetidin-1-yl)methyl)-1-methylcyclohexane-1-carboxylic acid] |
| < 20000 nM | < 500 nM | Cc1cc(C2CN(C[C@H]3CC[C@H](C(=O)O)CC3)C2)ccc1-n1c(-c2cccnc2N)nc2ccc(-c3ccccc3)nc21 [Compound I-139, (1r,4r)-4-((3-(4-(2-(2-aminopyridin-3-yl)-5-phenyl-3H-imidazo[4,5-b]pyridin-3-yl)-3-methylphenyl)azetidin-1-yl)methyl)cyclohexane-1-carboxylic acid] |
